From patent US11780843B2, “Compounds active towards nuclear receptors” (NUEVOLUTION A/S, priority 2020, dated 2023)

Target: T1, RORγ ligand-binding domain (Homo sapiens, UniProt P51449)
T1 construct: Gal4 (galactose-responsive transcription factor); expressed in transfected cells; host or cells: HEK293, transient co-transfection
T1 sequence (P51449 269-508 limits assumed): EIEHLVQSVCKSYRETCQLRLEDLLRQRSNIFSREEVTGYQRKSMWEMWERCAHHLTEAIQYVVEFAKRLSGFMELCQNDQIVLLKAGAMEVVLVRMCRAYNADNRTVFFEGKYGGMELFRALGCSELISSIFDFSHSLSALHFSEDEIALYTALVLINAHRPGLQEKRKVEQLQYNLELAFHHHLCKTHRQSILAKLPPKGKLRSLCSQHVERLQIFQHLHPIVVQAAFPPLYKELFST
Experiment: RORγ Reporter Assay (Gal4)
Assay type: cell-based
Conditions: HEK293 cells, luciferase reporter, 24 h incubation, absolute IC50; read-out: IC50
Experimental: The HEK293 cell line is co-transfected transiently with two plasmids, one with the RORγ ligand-binding domain fused to galactose-responsive transcription factor (Ga14), and the other with the luciferase reporter gene and Gal binding sites (UAS). This construction allows to determine the RORT activity in a cellular system through the measurement of luminescence.
A suspension of RORγ reporter cells was dispensed into plates and cultured 2 h at 37° C. and 5% CO2. Media formulation consisted in DMEM/F-12 medium (Gibco) supplemented with 10% heat inactivated FBS (Sigma-Aldrich), non-essential aminoacids (Sigma-Aldrich), 2 mM Glutamax (Gibco) and 100 U/mL penicillin (Sigma-Aldrich). Dose-response curves with compounds were prepared in 100% DMSO and further diluted 100-fold in culture medium. Compound solutions were added to the plate containing cells (final DMSO concentration of 0.1%) and incubated for 24 h at 37° C. and 5% CO2. Luciferase detection reagent was added to each well, and relative light units (RLUs) were quantified from each assay well using a plate reading luminometer.
Values of average RLU±S.D. were computed for all treatment sets, followed by the calculations of percent-reduction of RORT activity in response to respective test compound. The following formula was used: activity=100*[1−[[…]] where the theoretical minimum reduction (0% reduction). […] These calculations were performed in excel-fit software using X-204 model curve.

Row | IC50 [nM] | SMILES
1 | 24 | CCN(Cc1ccc(-c2cnn(C)c2)cc1F)c1ncnc2c1ccn2C[C@@H]1CCN(CC(N)=O)C[C@H]1O (relative stereo) [P6-35″, rel-2-((3R,4R)-4-((4-(ethyl(2-fluoro-4-(1-methyl-1H-pyrazol-4-yl)benzyl)amino)-7H-pyrrolo[2,3-d]pyrimidin-7-yl)methyl)-3-hydroxypiperidin-1-yl)acetamide]
2 | 13 | NC(=O)CN1CC[C@@H](Cn2ccc3c(N4CCOC[C@@H]4c4cccc(C(F)(F)F)c4)ncnc32)[C@H](O)C1 (single isomer, unassigned) [Example P6-03-1]
3 | 14 | CCN(Cc1ccc(-n2cccn2)cc1F)c1ncnc2c1ccn2C[C@@H]1CCN(CC(N)=O)C[C@H]1O (relative stereo) [P6-36″, rel-2-((3R,4R)-4-((4-(ethyl(2-fluoro-4-(1H-pyrazol-1-yl)benzyl)amino)-7H-pyrrolo[2,3-d]pyrimidin-7-yl)methyl)-3-hydroxypiperidin-1-yl)acetamide]
4 | 330 | NC(=O)CN1CCC(Cn2ccc3c(N4CCOC[C@@H]4c4ccc(C(F)(F)F)cn4)ncnc32)CC1 [Example Q4-2, (S)-2-(4-((4-(3-(5-(trifluoromethyl)pyridin-2-yl)morpholino)-7H-pyrrolo[2,3-d]pyrimidin-7-yl)methyl)piperidin-1-yl)acetamide]
5 | > 1000 | CC(C)(C(N)=O)N1CCC(Cn2cnc3c(N(Cc4ccc(C(F)(F)F)cc4)C4CC4)ncnc32)CC1 [Example P6-09, 2-(4-((6-(cyclopropyl(4-(trifluoromethyl)benzyl)amino)-9H-purin-9-yl)methyl)piperidin-1-yl)-2-methylpropanamide]
6 | 6.1 | NC(=O)CN1CC[C@@H](Cn2ccc3c(N(Cc4ccc(C(F)(F)F)cc4)C4CC4)ncnc32)[C@H](F)C1 (single isomer, unassigned) [Example K8-2-1]
7 | 93 | NC(=O)CN1CCC(Cn2cc(F)c3c(N(Cc4ccc(C(F)(F)F)nc4)C4CC4)ncnc32)CC1 [Example P6-10, 2-(4-((4-(cyclopropyl((6-(trifluoromethyl)pyridin-3-yl)methyl)amino)-5-fluoro-7H-pyrrolo[2,3-d]pyrimidin-7-yl)methyl)piperidin-1-yl)acetamide]
8 | 3.1 | NC(=O)CN1CC[C@@H](Cn2ccc3c(N(Cc4ccc(C(F)(F)F)cc4)C4CC4)ncnc32)[C@H](F)C1 (single isomer, unassigned) [Example K8-2-2]
9 | 231 | CC(C(N)=O)N1CCC(Cn2cnc3c(N(Cc4ccc(C(F)(F)F)cc4)C4CC4)ncnc32)CC1 (stereo not shown) [Example P6-08, 2-(4-((6-(cyclopropyl(4-(trifluoromethyl)benzyl)amino)-9H-purin-9-yl)methyl)piperidin-1-yl)propanamide]
10 | 12 | NC(=O)CN1CC[C@@H](Cn2ccc3c(N4CCOC[C@@H]4c4ccc(C(F)(F)F)cc4)ncnc32)[C@H](O)C1 (single isomer, unassigned) [Example P6-01-1, 2-((3R*,4R*)-3-hydroxy-4-((4-((S)-3-(4-(trifluoromethyl)phenyl)morpholino)-7H-pyrrolo[2,3-d]pyrimidin-7-yl)methyl)piperidin-1-yl)acetamide]
11 | 26 | NC(=O)CN1CC[C@@H](Cn2ccc3c(N4CCOC[C@@H]4c4cccc(C(F)(F)F)c4)ncnc32)[C@H](O)C1 (single isomer, unassigned) [Example P6-03-2]
12 | 63 | CCN(Cc1ccc(C(F)(F)F)cc1F)c1ncnc2c1ccn2C[C@@]1(O)CCN(CC(N)=O)C[C@@H]1O (racemic) [Example L5-3-1, rac-2-((3R,4R)-4-((4-(ethyl(2-fluoro-4-(trifluoromethyl)benzyl)amino)-7H-pyrrolo[2,3-d]pyrimidin-7-yl)methyl)-3,4-dihydroxypiperidin-1-yl)acetamide]
13 | 72 | NC(=O)CN1CCC(O)(Cn2cnc3c(N(Cc4ccc(C(F)(F)F)cc4)C4CC4)ncnc32)CC1 [Example 3P6-3, 2-(4-((6-(cyclopropyl(4-(trifluoromethyl)benzyl)amino)-9H-purin-9-yl)methyl)-4-hydroxypiperidin-1-yl)acetamide]
14 | 87 | CN(Cc1ccc(C(F)(F)F)cc1)c1ncnc2c1c(F)cn2CC1(O)CCN(CC(N)=O)CC1 [Example 3P6-5, 2-(4-((5-fluoro-4-(methyl(4-(trifluoromethyl)benzyl)amino)-7H-pyrrolo[2,3-d]pyrimidin-7-yl)methyl)-4-hydroxypiperidin-1-yl)acetamide]
15 | 65 | NC(=O)CN1CC[C@@H](Cn2cnc3c(N(Cc4ccc(C(F)(F)F)cc4)C4CC4)ncnc32)[C@H](O)C1 (single isomer, unassigned) [Example P6-26-1]
16 | > 1000 | CCN(Cc1ccc(C#N)cc1)c1ncnc2c1ccn2C[C@@H]1CCN(CC(N)=O)C[C@H]1O (relative stereo) [P6-29″, rel-2-((3R,4R)-4-((4-((4-cyanobenzyl)(ethyl)amino)-7H-pyrrolo[2,3-d]pyrimidin-7-yl)methyl)-3-hydroxypiperidin-1-yl)acetamide]
17 | 279 | N#Cc1cn(CC2CCN(CC(N)=O)CC2)c2ncnc(N(Cc3ccc(C(F)(F)F)cc3)C3CC3)c12 [Example P6-07, 2-(4-((5-cyano-4-(cyclopropyl(4-(trifluoromethyl)benzyl)amino)-7H-pyrrolo[2,3-d]pyrimidin-7-yl)methyl)piperidin-1-yl)acetamide]
18 | > 1000 | NC(=O)CN1CC[C@@H](Cn2cnc3c(N(Cc4cccc(C(F)(F)F)c4)C4CC4)ncnc32)[C@H](O)C1 (racemic) [Example P6-20, rac-2-((3R,4R)-4-((6-(cyclopropyl(3-(trifluoromethyl)benzyl)amino)-9H-purin-9-yl)methyl)-3-hydroxypiperidin-1-yl)acetamide]
19 | 9 | NC(=O)CN1CCC(Cn2ccc3c(N(Cc4ccc(C(F)(F)F)cc4)C4CC4)ncnc32)C(F)(F)C1 (single isomer, unassigned) [Example K8-1-1]
20 | 250 | NC(=O)CN1CC[C@@H](Cn2ccc3c(N4CCOC[C@@H]4c4ccc(C(F)(F)F)cn4)ncnc32)[C@H](F)C1 (single isomer, unassigned) [Example Q4-1-2, 2-((3R*,4R*)-3-fluoro-4-((4-((S)-3-(5-(trifluoromethyl)pyridin-2-yl)morpholino)-7H-pyrrolo[2,3-d]pyrimidin-7-yl)methyl)piperidin-1-yl)acetamide]
21 | 170 | NC(=O)CN1CC[C@@H](Cn2ccc3c(N4CCOC[C@@H]4c4ccc(C(F)(F)F)cn4)ncnc32)[C@H](F)C1 (single isomer, unassigned) [Example Q4-1-1, 2-((3R*,4R*)-3-fluoro-4-((4-((S)-3-(5-(trifluoromethyl)pyridin-2-yl)morpholino)-7H-pyrrolo[2,3-d]pyrimidin-7-yl)methyl)piperidin-1-yl)acetamide]
22 | 43 | NC(=O)CN1CC[C@@H](Cn2cc(F)c3c(N(Cc4cnc(C(F)(F)F)nc4)C4CC4)ncnc32)[C@H](O)C1 (racemic) [Example P6-17, rac-2-((3R,4R)-4-((4-(cyclopropyl((2-(trifluoromethyl)pyrimidin-5-yl)methyl)amino)-5-fluoro-7H-pyrrolo[2,3-d]pyrimidin-7-yl)methyl)-3-hydroxypiperidin-1-yl)acetamide]
23 | 22 | NC(=O)CN1CC[C@@H](Cn2ccc3c(N(Cc4ccc(C(F)(F)F)cn4)C4CC4)ncnc32)[C@H](F)C1 (single isomer, unassigned) [Example K8-3-2]

Same assay, conditions: stated as a bound only (Tables 5 a, 6, 7); read-out: Gal4 assay IC50

Row | IC50 [nM] | SMILES
24 | < 500 | NC(=O)CN1CCC(Cn2ccc3c(N4CCOC[C@@H]4c4ccc(C(F)(F)F)cn4)ncnc32)CC1 [Example Q4-2, (S)-2-(4-((4-(3-(5-(trifluoromethyl)pyridin-2-yl)morpholino)-7H-pyrrolo[2,3-d]pyrimidin-7-yl)methyl)piperidin-1-yl)acetamide]
25 | < 500 | NC(=O)CN1CC[C@@H](Cn2ccc3c(N4CCOC[C@@H]4c4ccc(C(F)(F)F)cn4)ncnc32)[C@H](F)C1 (single isomer, unassigned) [Example Q4-1-1, 2-((3R*,4R*)-3-fluoro-4-((4-((S)-3-(5-(trifluoromethyl)pyridin-2-yl)morpholino)-7H-pyrrolo[2,3-d]pyrimidin-7-yl)methyl)piperidin-1-yl)acetamide]
